Toxic doses and inconclusive results are not listed.

In the experiment the test system is CD2F1 mice, L1210 leukemia ip, survival T/C. Put plainly: NCI In Vivo Anticancer Drug Screen. Data for tumor model L1210 Leukemia (intraperitoneal) in CD2F1 (CDF1) mice. As to conditions: higher = longer survival. An outline of the steps:
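Tumor-bearing mice (transplanted tumor) were split into treated and vehicle control groups, and the measured endpoint of each treated group was divided by that of its vehicle controls.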

[1] abbreviates: endpoint: mean survival time, dose: 100.0 mg/kg/injection, schedule: Q04DX003 (ip), vehicle: saline with Tween-80.
The mark [2] stands for this setting: endpoint: mean survival time, dose: 200.0 mg/kg/injection, schedule: Q04DX003 (ip), vehicle: saline with Tween-80.
The mark [3] stands for this setting: endpoint: mean survival time, dose: 400.0 mg/kg/injection, schedule: Q04DX003 (ip), vehicle: saline with Tween-80.
[4] abbreviates: endpoint: mean survival time, dose: 100.0 mg/kg/injection, schedule: Q01DX001 (ip), vehicle: saline with Tween-80.
The mark [5] stands for this setting: endpoint: mean survival time, dose: 200.0 mg/kg/injection, schedule: Q01DX001 (ip), vehicle: saline with Tween-80.
The mark [6] stands for this setting: endpoint: mean survival time, dose: 400.0 mg/kg/injection, schedule: Q01DX001 (ip), vehicle: saline with Tween-80.
The mark [7] stands for this setting: endpoint: mean survival time, dose: 25.0 mg/kg/injection, schedule: Q01DX009 (ip), vehicle: saline with Tween-80.
[8] abbreviates: endpoint: mean survival time, dose: 50.0 mg/kg/injection, schedule: Q01DX009 (ip), vehicle: saline with Tween-80.
Where [9] appears, read: endpoint: mean survival time, dose: 100.0 mg/kg/injection, schedule: Q01DX009 (ip), vehicle: saline with Tween-80.
Setting [10] is: endpoint: mean survival time, dose: 200.0 mg/kg/injection, schedule: Q01DX009 (ip), vehicle: saline with Tween-80.
[11] abbreviates: endpoint: mean survival time, dose: 100.0 mg/kg/injection, schedule: Q01DX009 (ip), vehicle: Klucel (hydroxypropylcellulose) (HPC).
[12] abbreviates: endpoint: mean survival time, dose: 200.0 mg/kg/injection, schedule: Q01DX009 (ip), vehicle: Klucel (hydroxypropylcellulose) (HPC).
Setting [13] is: endpoint: mean survival time, dose: 400.0 mg/kg/injection, schedule: Q01DX009 (ip), vehicle: Klucel (hydroxypropylcellulose) (HPC).
[14] abbreviates: endpoint: mean survival time, dose: 400.0 mg/kg/injection, schedule: Q01DX009 (ip), vehicle: saline with Tween-80.

For the compound `C[C@]12CCCC[C@@H]1CC[C@@H]1[C@@H]2CC[C@]2(C)[C@@H](N(CCO)CCCO)CC[C@@H]12`, the T/C is 98 % of control (endpoint: mean survival time, dose: 100.0 mg/kg/injection, schedule: Q04DX003 (sc), vehicle: steriod suspending solution); 91 % of control (endpoint: mean survival time, dose: 200.0 mg/kg/injection, schedule: Q04DX003 (sc), vehicle: steriod suspending solution); 107 % of control (endpoint: mean survival time, dose: 400.0 mg/kg/injection, schedule: Q04DX003 (sc), vehicle: steriod suspending solution).
Turning to `O=C(O)c1ccccc1NO`, the T/C by setting is: under setting [1], 90 % of control; under setting [2], 98 % of control; under setting [3], 90 % of control.
As to `CNC(=O)Oc1cccc(NC(=O)OCCCCl)c1`, the T/C runs as follows: under setting [4], 100 % of control; under setting [5], 105 % of control; under setting [6], 105 % of control.
Regarding `Cc1cc2nc(NN)[nH]c2cc1C`, the T/C by setting is: under setting [1], 98 % of control; under setting [2], 98 % of control; under setting [3], 114 % of control.
Turning to `COc1cc(C2CNCc3cc(OC)c(OC)cc32)ccc1O` (stereo not drawn), the T/C runs as follows: (endpoint: mean survival time, dose: 75.0 mg/kg/injection, schedule: Q01DX001 (ip), vehicle: saline) 96 % of control; (endpoint: mean survival time, dose: 150.0 mg/kg/injection, schedule: Q01DX001 (ip), vehicle: saline) 104 % of control; (endpoint: mean survival time, dose: 300.0 mg/kg/injection, schedule: Q01DX001 (ip), vehicle: saline) 100 % of control.
For the compound `C/C([O-])=N\[N+](C)(C)Cc1ccccc1`, the T/C runs as follows: under setting [4], 95 % of control; under setting [5], 98 % of control; under setting [6], 102 % of control.
The matching figures for `O=C(O)c1ccc([N+](=O)[O-])cc1[N+](=O)[O-]`: 87 % of control, 97 % of control and 91 % of control.
Turning to `CCCN(CCC)CC(C)O` (stereo not drawn), the T/C is 95 % of control (endpoint: mean survival time, dose: 50.0 mg/kg/injection, schedule: Q01DX009 (ip), vehicle: saline); 101 % of control (endpoint: mean survival time, dose: 100.0 mg/kg/injection, schedule: Q01DX009 (ip), vehicle: saline); 97 % of control (endpoint: mean survival time, dose: 200.0 mg/kg/injection, schedule: Q01DX009 (ip), vehicle: saline).
Turning to `CC(C)(C)C1CCC(=O)C1` (stereo not drawn), the T/C was 87 % of control (endpoint: mean survival time, dose: 12.5 mg/kg/injection, schedule: Q01DX009 (ip), vehicle: saline with Tween-80) and 95 % of control under setting [7].
For the compound `Nc1ncnc2nc(-c3cccc(CNC(=O)c4ccccc4S(=O)(=O)F)c3)[nH]c12`, the T/C under setting [4] is 87 % of control and the T/C under setting [6] was 87 % of control.
For `C[S+]1C=Cc2ccccc2C1c1ccc(Cl)cc1` (stereo not drawn), the T/C by setting is: (endpoint: mean survival time, dose: 12.5 mg/kg/injection, schedule: Q04DX002 (ip), vehicle: Klucel (hydroxypropylcellulose) (HPC)) 103 % of control; (endpoint: mean survival time, dose: 25.0 mg/kg/injection, schedule: Q04DX002 (ip), vehicle: Klucel (hydroxypropylcellulose) (HPC)) 100 % of control; (endpoint: mean survival time, dose: 50.0 mg/kg/injection, schedule: Q04DX002 (ip), vehicle: Klucel (hydroxypropylcellulose) (HPC)) 105 % of control.
`COc1cc2c(cc1OC)-c1nc(N)sc1CC2`: the T/C is 107 % of control (endpoint: mean survival time, dose: 100.0 mg/kg/injection, schedule: Q04DX002 (ip), vehicle: saline with Tween-80); 98 % of control (endpoint: mean survival time, dose: 200.0 mg/kg/injection, schedule: Q04DX002 (ip), vehicle: saline with Tween-80); 103 % of control (endpoint: mean survival time, dose: 400.0 mg/kg/injection, schedule: Q04DX002 (ip), vehicle: saline with Tween-80).
Turning to `COC1OC(CNC(=O)N(C)N=O)C(O)C(O)C1O` (stereo not drawn), the T/C is 120 % of control (endpoint: mean survival time, dose: 33.0 mg/kg/injection, schedule: Q01DX009 (ip), vehicle: saline) and 153 % of control (endpoint: mean survival time, dose: 113.0 mg/kg/injection, schedule: Q01DX009 (ip), vehicle: saline).
In the case of `C=CCOCC(COCC=C)OC1CCS(=O)(=O)C1` (stereo not drawn), the T/C by setting is: under setting [8], 101 % of control; under setting [9], 97 % of control; under setting [10], 93 % of control.
For `CC(=O)OCC1OC(n2ccc(-n3cncn3)nc2=O)CC1N=[N+]=[N-]` (stereo not drawn), the T/C runs as follows: (endpoint: median survival time, dose: 12.5 mg/kg/injection, schedule: Q01DX005 (ip), vehicle: saline with Tween-80) 101 % of control; (endpoint: median survival time, dose: 25.0 mg/kg/injection, schedule: Q01DX005 (ip), vehicle: saline with Tween-80) 104 % of control; (endpoint: median survival time, dose: 50.0 mg/kg/injection, schedule: Q01DX005 (ip), vehicle: saline with Tween-80) 98 % of control; (endpoint: median survival time, dose: 100.0 mg/kg/injection, schedule: Q01DX005 (ip), vehicle: saline with Tween-80) 94 % of control; (endpoint: median survival time, dose: 200.0 mg/kg/injection, schedule: Q01DX005 (ip), vehicle: saline with Tween-80) 93 % of control.
For the compound `CC(=O)/C=C/Sc1n[nH]c(=O)[nH]c1=O`, the T/C runs as follows: (endpoint: mean survival time, dose: 12.5 mg/kg/injection, schedule: Q01DX005 (ip), vehicle: distilled water + Tween-80) 106 % of control; (endpoint: mean survival time, dose: 25.0 mg/kg/injection, schedule: Q01DX005 (ip), vehicle: distilled water + Tween-80) 101 % of control; (endpoint: mean survival time, dose: 50.0 mg/kg/injection, schedule: Q01DX005 (ip), vehicle: distilled water + Tween-80) 107 % of control; (endpoint: mean survival time, dose: 100.0 mg/kg/injection, schedule: Q01DX005 (ip), vehicle: distilled water + Tween-80) 98 % of control.
On to `CO[C@@]12[C@@H]3N[C@@H]3CN1C1=C(C(=O)C(Nc3ccc(S)cc3)=C(C)C1=O)[C@@H]2COC(N)=O`, for which the T/C (endpoint: mean survival time, dose: 1.5 mg/kg/injection, schedule: Q01DX001 (ip), vehicle: water) was 108 % of control; the T/C (endpoint: mean survival time, dose: 3.0 mg/kg/injection, schedule: Q01DX001 (ip), vehicle: water) is 104 % of control; the T/C (endpoint: mean survival time, dose: 6.0 mg/kg/injection, schedule: Q01DX001 (ip), vehicle: water) was 97 % of control; the T/C (endpoint: mean survival time, dose: 12.0 mg/kg/injection, schedule: Q01DX001 (ip), vehicle: water) is 98 % of control; the T/C (endpoint: mean survival time, dose: 16.7 mg/kg/injection, schedule: Q01DX001 (ip), vehicle: distilled water + Tween-80) is 92 % of control; the T/C (endpoint: mean survival time, dose: 24.0 mg/kg/injection, schedule: Q01DX001 (ip), vehicle: distilled water + Tween-80) is 102 % of control. Moreover, the T/C (endpoint: mean survival time, dose: 24.0 mg/kg/injection, schedule: Q01DX001 (ip), vehicle: water) was 98 % of control; the T/C (endpoint: mean survival time, dose: 34.2 mg/kg/injection, schedule: Q01DX001 (ip), vehicle: distilled water + Tween-80) was 104 % of control; the T/C (endpoint: mean survival time, dose: 48.9 mg/kg/injection, schedule: Q01DX001 (ip), vehicle: distilled water + Tween-80) was 96 % of control.
`COC(=O)c1ccc(-c2ccccc2)cc1`: the T/C was 96 % of control (endpoint: mean survival time, dose: 25.0 mg/kg/injection, schedule: Q01DX009 (ip), vehicle: Klucel (hydroxypropylcellulose) (HPC)); 102 % of control (endpoint: mean survival time, dose: 50.0 mg/kg/injection, schedule: Q01DX009 (ip), vehicle: Klucel (hydroxypropylcellulose) (HPC)); 103 % of control under setting [11]; 105 % of control under setting [12]; 102 % of control under setting [13].
Turning to `O=C(O)/C(=C/c1ccc(O)cc1)c1ccccc1`, the T/C is 88 % of control under setting [9]; 101 % of control under setting [1]; 93 % of control under setting [10]; 91 % of control under setting [2]; 87 % of control under setting [14]; 96 % of control under setting [3].
As to `CC1=CC(=O)C2(C)C(C)=C(C)C12C` (stereo not drawn), the T/C under setting [7] was 104 % of control, the T/C under setting [8] was 100 % of control and the T/C under setting [9] is 102 % of control.
In the case of `CN1C(=O)c2ccccc2C1(c1ccccc1)c1ccccc1`, the T/C under setting [1] is 92 % of control, the T/C under setting [2] is 103 % of control and the T/C under setting [3] is 102 % of control.
In the case of `CC(=O)OC(C)CC(C)(C)OC(C)=O` (stereo not drawn), the T/C under setting [4] was 95 % of control, the T/C under setting [5] was 92 % of control and the T/C under setting [6] was 103 % of control.
With `[Cl][Pt+2][Cl].[NH-]Cc1ccccc1.[NH-]Cc1ccccc1`, the T/C (endpoint: mean survival time, dose: 50.0 mg/kg/injection, schedule: Q01DX001 (ip), vehicle: saline with Tween-80) is 110 % of control; the T/C under setting [4] was 110 % of control; the T/C under setting [5] is 110 % of control.
For `O=C(C(=O)c1ccc(Cl)c(Cl)c1)c1ccc(Cl)c(Cl)c1`, the T/C is, setting by setting: under setting [11], 90 % of control; under setting [12], 91 % of control; under setting [13], 96 % of control.
With `CCN(C(=O)CCl)c1ccccc1C`, the T/C reads like this: under setting [1], 92 % of control; under setting [2], 89 % of control.
Turning to `O=C1CC(c2ccccc2)C(c2ccccc2)=C1Cl` (stereo not drawn), the T/C reads like this: under setting [9], 94 % of control; under setting [10], 98 % of control; under setting [14], 96 % of control.

The values above are taken from PubChem BioAssay AID256 (DTP/NCI, 2004).
